# Source: patent EP4273147A1, “SUBSTITUTED SPIROLACTAMS, SALTS THEREOF AND THEIR USE AS HERBICIDALLY ACTIVE SUBSTANCES” (Bayer Aktiengesellschaft, priority 2022, dated 2023)
# Columns and labels:
# BRSNW [1] = experiment: Pre-emergence effects on crop plants (Table D5); type: in vivo, Brassica napus; details: crop plant; application rate 320 g/ha; visual grading after ca. 3 weeks
# ECHCG [2] = experiment: Herbicidal pre-emergence action, section C (Table C6); type: in vivo, Echinochloa crus-galli; details: application rate 80 g/ha; visual grading after ca. 3 weeks
# ORYZA [3] = experiment: Pre-emergence effects on crop plants (Table D3); details: crop plant; application rate 320 g/ha; visual grading after ca. 3 weeks
# VIOTR [4] = experiment: Herbicidal post-emergence action, section E (Table E10); type: in vivo, Viola tricolor; details: application rate 320 g/ha; assessed visually after ca. 3 weeks
# Description: (§1) 2 to 3 weeks after sowing, the test plants were sprayed in the single-leaf stage.
# TRZAS [5] = experiment: Pre-emergence effects on crop plants (Table D2); type: in vivo, Triticum aestivum; details: crop plant; application rate 320 g/ha; visual grading after ca. 3 weeks
# GLXMA [6] = experiment: Post-emergence effects on crop plants (Table F4); type: in vivo, Glycine max; details: application rate 80 g/ha, crop plant GLXMA
# Description: as §1
# ECHCG [7] = experiment: Herbicidal pre-emergence action (Table A2); type: in vivo, Echinochloa crus-galli; details: application rate 320 g/ha; visual grading after ca. 3 weeks
# Procedure, shortened: (§2)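 Weed seeds are sown into sandy loam in pots and covered with soil, with two species per pot, one monocot and one dicot.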
# ZEAMX [8] = experiment: Pre-emergence effects on crop plants (Table D1); type: in vivo, Zea mays; details: crop plant; application rate 80 g/ha; visual grading after ca. 3 weeks
# MATIN [9] = experiment: Herbicidal pre-emergence action (Table A4); type: in vivo, Matricaria inodora; details: application rate 1280 g/ha; visual grading after ca. 3 weeks
# Procedure, shortened: as §2
# GLXMA [10] = experiment: Pre-emergence effects on crop plants (Table D4); type: in vivo, Glycine max; details: crop plant; application rate 320 g/ha; visual grading after ca. 3 weeks
# VERPE [11] = experiment: Herbicidal pre-emergence action, section C (Table C11); type: in vivo, Veronica persica; details: application rate 80 g/ha; visual grading after ca. 3 weeks
# ALOMY [12] = experiment: Herbicidal post-emergence action, section E (Table E2); type: in vivo, Alopecurus myosuroides; details: application rate 320 g/ha; assessed visually after ca. 3 weeks
# Description: as §1
# SETVI [13] = experiment: Herbicidal pre-emergence action (Table A5); type: in vivo, Setaria viridis; details: application rate 320 g/ha; visual grading after ca. 3 weeks
# Procedure, shortened: as §2
# POAAN = experiment: Herbicidal pre-emergence action (Table A7); type: in vivo, Poa annua; details: application rate 320 g/ha; visual grading after ca. 3 weeks
# Procedure, shortened: as §2
# ALOMY [14] = experiment: Herbicidal pre-emergence action, section C (Table C2); type: in vivo, Alopecurus myosuroides; details: application rate 320 g/ha; visual grading after ca. 3 weeks
# ZEAMX [15] = experiment: Post-emergence effects on crop plants (Table F1); type: in vivo, Zea mays; details: application rate 320 g/ha, crop plant ZEAMX
# Description: as §1
# MATIN [16] = experiment: Herbicidal pre-emergence action, section C (Table C8); type: in vivo, Matricaria inodora; details: application rate 320 g/ha; visual grading after ca. 3 weeks
# VERPE [17] = experiment: Herbicidal post-emergence action, section E (Table E9); type: in vivo, Veronica persica; details: application rate 320 g/ha; assessed visually after ca. 3 weeks
# Description: as §1
# LOLRI = experiment: Herbicidal pre-emergence action (Table A3); type: in vivo, Lolium rigidum; details: application rate 320 g/ha; visual grading after ca. 3 weeks
# Procedure, shortened: as §2
# POLCO = experiment: Herbicidal post-emergence action, section E (Table E7); type: in vivo, Polygonum convolvulus; details: application rate 320 g/ha; assessed visually after ca. 3 weeks
# Description: as §1
# DIGSA = experiment: Herbicidal pre-emergence action, section C (Table C5); type: in vivo, Digitaria sanguinalis; details: application rate 80 g/ha; visual grading after ca. 3 weeks
# ORYZA [18] = experiment: Post-emergence effects on crop plants (Table F3); type: in vivo, Oryza sativa; details: application rate 320 g/ha, crop plant ORYZA
# Description: as §1
# STEME = experiment: Herbicidal pre-emergence action (Table A6); type: in vivo, Stellaria media; details: application rate 320 g/ha; visual grading after ca. 3 weeks
# Procedure, shortened: as §2
# VIOTR [19] = experiment: Herbicidal pre-emergence action, section C (Table C12); type: in vivo, Viola tricolor; details: application rate 320 g/ha; visual grading after ca. 3 weeks
# TRZAS [20] = experiment: Post-emergence effects on crop plants (Table F2); type: in vivo, Triticum aestivum; details: application rate 320 g/ha, crop plant TRZAS
# Description: as §1
# SETVI [21] = experiment: Herbicidal pre-emergence action, section C (Table C10); type: in vivo, Setaria viridis; details: application rate 80 g/ha; visual grading after ca. 3 weeks
# ECHCG [22] = experiment: Herbicidal post-emergence action, section E (Table E5); type: in vivo, Echinochloa crus-galli; details: application rate 320 g/ha; assessed visually after ca. 3 weeks
# Description: as §1
# BRSNW [23] = experiment: Post-emergence effects on crop plants (Table F5); type: in vivo, Brassica napus; details: application rate 80 g/ha, crop plant BRSNW
# Description: as §1
structure (smiles),measurement,setting,value
O=C1N(Cc2cc(F)ccc2F)CCCC12CCCN(Cc1cc(F)ccc1F)C2=O (racemic) [I-017],pre-emergence activity against BRSNW,BRSNW [1],20%
same,pre-emergence activity against ECHCG,ECHCG [2],100%
same,pre-emergence activity against ORYZA,ORYZA [3],20%
same,post-emergence activity against VIOTR,VIOTR [4],80%
same,pre-emergence activity against TRZAS,TRZAS [5],10%
same,post-emergence activity against GLXMA,GLXMA [6],20%
same,pre-emergence activity against ECHCG,ECHCG [7],100%
same,pre-emergence activity against ZEAMX,ZEAMX [8],10%
same,pre-emergence activity against MATIN,MATIN [9],90%
same,pre-emergence activity against GLXMA,GLXMA [10],20%
same,pre-emergence activity against VERPE,VERPE [11],90%
same,post-emergence activity against ALOMY,ALOMY [12],80%
same,pre-emergence activity against SETVI,SETVI [13],100%
same,pre-emergence activity against POAAN,POAAN,100%
same,pre-emergence activity against ALOMY,ALOMY [14],90%
same,post-emergence activity against ZEAMX,ZEAMX [15],10%
same,pre-emergence activity against MATIN,MATIN [16],80%
same,post-emergence activity against VERPE,VERPE [17],80%
same,pre-emergence activity against LOLRI,LOLRI,100%
same,post-emergence activity against POLCO,POLCO,100%
same,pre-emergence activity against DIGSA,DIGSA,100%
same,post-emergence activity against ORYZA,ORYZA [18],0%
same,pre-emergence activity against STEME,STEME,90%
same,pre-emergence activity against VIOTR,VIOTR [19],80%
same,post-emergence activity against TRZAS,TRZAS [20],10%
same,pre-emergence activity against SETVI,SETVI [21],90%
same,post-emergence activity against ECHCG,ECHCG [22],80%
same,post-emergence activity against BRSNW,BRSNW [23],0%
